Data: patent publication EP2608671B1, “COMPOUNDS FOR TREATMENT OF CANCER” (Gtx, Inc., priority 2010, dated 2012)
Converted amounts (≈) assume the structure as drawn. Like-named read-outs stand apart in the source and are kept apart here.

Columns and labels:
[1] = in vivo; details: mouse, po, 20 mg/kg
[2] = system: PPC-1; test: cells; details: Homo sapiens, PPC-1, 96 h, read-out: IC50 ± SEM (nM), PPC-1
[3] = system: OVCAR-8; test: SRB growth inhibition, MDR model parent line; assay type: cell-based, human; details: Homo sapiens
[4] = system: LNCaP; test: cells; details: Homo sapiens, 96 h, read-out: IC50 ± SEM (nM), LNCaP
[5] = aqueous solubility; 90 min
[6] = in vivo; details: rat, plasma, po, 10 mg/kg
[7] = system: PC-3; test: cells
Source text: The only compounds which belong to the invention are the ones falling under the scope of formula (XI).
Cells were stained with SRB solution.
Cells. […] Cells between the third and fifth passages were used for experiments.
Cell growth inhibition studies. […] Cells were stained with sulphorhodamine B (SRB) solution.

[8] = system: DU 145; test: cells; details: Homo sapiens, DU-145, 96 h, read-out: IC50 ± SEM (nM) Du 145
[9] = system: MRP; test: Growth inhibition in MRP-mediated resistant cells (Table 14B); assay type: cell-based; details: n=3
[10] = system: A375; test: SRB cell growth inhibition (cytotoxicity) assay; assay type: cell-based, human; details: Homo sapiens, A-375; Table 14B, n=3; read-out: IC50 ± SEM (nmol/L) A375
[11] = system: MDA-MB-435/LCC6MDR1; test: SRB growth inhibition, multidrug-resistant melanoma line; assay type: cell-based; details: MDA-MB-435/LCC6 MDR1; MDR1 overexpressed, n=3; read-out: IC50 ± SEM (nmol/L) MDA-MB-435/LCC6MDR1
[12] = system: cancer and MDR cell lines with different resistance mechanisms; test: Growth inhibition in other cancer and MDR cell lines of Table 14B; assay type: cell-based; details: n=3
[13] = system: WM-164; test: SRB cell growth inhibition (cytotoxicity) assay; assay type: cell-based, human; details: Homo sapiens
[14] = system: WM-164 melanoma cells; test: Microtubule imaging (immunofluorescence); assay type: cell-based, human; details: 18 h treatment
Source text: Primary antibody for tubulin and fluorescence-labeled secondary antibody were subsequently added to the cells. Cell nuclei were stained by DAPI. Whole Cell Stain Green was also applied to all cells. All images were acquired with an Olympus IX71 inverted fluorescence microscope (Olympus Corp., Tokyo, Japan) with overlays from separate images of tubulin (red), nuclei (blue), and whole cells (green).

[15] = system: NCI/ADR-RES; test: SRB growth inhibition, P-gp over-expressing MDR line; assay type: cell-based, human; details: Homo sapiens, NCI/ADR-RES; MDR1 overexpressed, n=3; read-out: IC50 ± SEM (nmol/L) NCI/ADR-RES
[16] = system: MDA-MB-435; test: SRB growth inhibition, sensitive parent melanoma line; assay type: cell-based; details: Homo sapiens, MDA-MB-435; parental cell line, n=3; read-out: IC50 ± SEM (nmol/L) MDA-MB-435
[17] = system: PC-3/TxR tumors; details: PC-3/TxR xenograft, IV 20mpk, day 1 and 9
[18] = system: HUVEC monolayers; test: Endothelial monolayer permeability assay; assay type: cell-based, human; details: leakage of dextran after 1, 2, 4 h
[19] = system: HUVECs (Human Umbilical Vein Endothelial Cells); assay type: cell-based
[20] = system: T47D; assay type: cell-based, human
[21] = system: CaCO-2; details: human

## COc1cc(C(=O)c2c[nH]c(-c3ccc(Cl)cc3)n2)cc(OC)c1OC [12fa, (2-(4-Chlorophenyl)-1H-imidazol-4-yl)(3,4,5-trimethoxyphenyl)methanone]
[1]
  AUC: 3350 ng·h/mL
  Cmax: 2590 ng/mL
[2]
  IC50: 26 ± 0.2 nM
[3]; OVCAR-8 cells, read-out: IC50 ± SEM (nM) OVCAR-8
  IC50: 47 nM
[4]
  IC50: 24 ± 1 nM
[5]
  Solubility: 12 µg/mL (≈ 32.2 µM)
[6]
  AUC: 3630 ng·h/mL
  Cmax: 1110 ng/mL
[7]; Homo sapiens, PC-3, 96 h, read-out: IC50 ± SEM (nM), PC-3
  IC50: 35 ± 1 nM
[8]
  IC50: 36 ± 0.4 nM

## COc1ccc(S(=O)(=O)Nc2cccnc2Nc2ccc(O)cc2)cc1 [ABT-751]
[9]; MRP1 overexpressed, read-out: IC50 ± SEM (nmol/L) HEK293-MRP1
  IC50: 717 ± 28 nmol/L
[9]; MRP2 overexpressed, read-out: IC50 ± SEM (nmol/L) HEK293-MRP2
  IC50: 747 ± 7 nmol/L
[10]
  IC50: 685 ± 108 nmol/L
[11]
  IC50: 577 ± 31 nmol/L
[12]; A375MA2 cells, read-out: IC50 ± SEM (nmol/L) A375MA2
  IC50: 265 ± 36 nmol/L
[12]; Homo sapiens, HEK293-pcDNA3.1 parental cell line, read-out: IC50 ± SEM (nmol/L) HEK293 - pcDNA3.1
  IC50: 645 ± 153 nmol/L
[13]; WM164, read-out: IC50 ± SEM (nM) (n=3), WM-164, Table 14A
  IC50: 661 ± 56 nM
[13]; WM164, Table 14B, n=3, read-out: IC50 ± SEM (nmol/L) WM-164
  IC50: 661 ± 56 nM
[14]
  effect on microtubules: microtubule fragmentation
[15]
  IC50: 864 ± 42 nmol/L
[3]; OVCAR-8, parental cell line, n=3, read-out: IC50 ± SEM (nmol/L) OVCAR-8
  IC50: 785 ± 17 nM
[16]
  IC50: 417 ± 23 nmol/L

## CC(=O)O[C@@]12CO[C@@H]1C[C@H](O)[C@@]1(C)C(=O)[C@H](O)C3=C(C)[C@@H](OC(=O)[C@H](O)[C@@H](NC(=O)OC(C)(C)C)c4ccccc4)C[C@@](O)([C@@H](OC(=O)c4ccccc4)[C@H]21)C3(C)C [Dooetaxel]
[17]; end point day 19
  TGI (%): 56%
  Tumor size (mm^3) End: 999 ± 905 mm^3
[17]; start
  Tumor size (mm^3) Start: 170 ± 86 mm^3

## COc1cccc2c1C(=O)c1c(O)c3c(c(O)c1C2=O)C[C@@](O)(C(=O)CO)C[C@@H]3O[C@H]1C[C@H](N)[C@H](O)[C@H](C)O1 [Doxorubicin]
[18]
  permeability of endothelial cell monolayer: did not induce any change
[19]; Table 24
  times more active against endothelial cells than against cancer cells: not specific to endothelial cells
[19]; mean IC50 in PC3 and T47D cells over HUVEC
  Selectivity ratio*, cancer cells/ HUVEC: 1.4
[19]; read-out: IC50 HUVEC
  IC50: 0.274 µM
[20]
  IC50: 0.353 µM
[7]; read-out: IC50 PC3
  IC50: 397 nM

## CC(C)NCC(O)COc1cccc2ccccc12 (centres unmarked) [Propranolol]
[21]
  Papp(A→B) in CaCO-2 assay: Propranolol (19) 10^-6 cm/s
